This experiment has as its target recombinant eIF4E (Homo sapiens (Human), UniProt P06730). Briefly: Fluorescence polarization competition assay for eIF4E binding potency. A digest of the protocol:
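Competition of test compound against 20 nM EDA-m^7GDP-ATTO-550 for 75 nM recombinant eIF4E, pre-incubated 5 min, in 20 mM Tris pH 7.5, 100 mM NaCl, 1 mM DTT, 0.02% Tween-20, 1% DMSO. Equilibrated 30 min at room temperature, dark; fluorescence polarization read. IC50 from 8-point, 3-fold dilution series.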

The mark [1] stands for this setting: inhibition of eIF4E/EDA-m7GDP-ATTO-550 binding, calculated IC50 values, Table 4B, read-out: IC50.
The mark [2] stands for this setting: fluorescence polarization competition, 75 nM recombinant eIF4E, 20 nM EDA-m7GDP-ATTO-550, IC50 class, read-out: elF4E FP.
[3] abbreviates: inhibition of eIF4E/EDA-m7GDP-ATTO-550 binding by 50%, Table 4B calculated values, read-out: IC50.

Where two headings read alike, the source gives them in different places.

Sequence of recombinant eIF4E (P06730 whole entry): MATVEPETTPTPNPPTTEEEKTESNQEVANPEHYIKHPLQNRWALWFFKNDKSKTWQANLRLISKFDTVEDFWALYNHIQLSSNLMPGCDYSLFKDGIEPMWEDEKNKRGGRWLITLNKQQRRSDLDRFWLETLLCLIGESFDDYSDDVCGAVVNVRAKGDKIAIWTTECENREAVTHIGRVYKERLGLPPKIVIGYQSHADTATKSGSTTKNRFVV

For the compound `Cc1nc2cnc(N(C)C3CCN(C4CC(F)(F)C4)CC3)c(C#N)c2c(=O)n1CC#Cc1ccc(Cl)cc1-c1ccnc2c(C(=O)NS(=O)(=O)c3cccnc3)csc12` [compound 1831], under setting [1], the IC50 is 5 nM. Regarding `Cc1nc2cnc(N3CCN(C(C)(C)CC#N)CC3)c(C#N)c2c(=O)n1CCOc1ccc(Cl)cc1-c1ccnc2c(C(=O)O)csc12` [compound 1343], the IC50 under setting [1] was 40.6 nM.

`Cn1cc(CCOc2ccc(Cl)cc2-c2ccnc3c(C(=O)O)csc23)c(=O)c2c(C#N)cc(C(F)(F)F)cc21` [compound 353]: the IC50 is, setting by setting: under setting [2], 50 to 1000 nM; under setting [3], 101 nM. Turning to `N#Cc1cc2c(=O)n(CCOc3ccc(Cl)cc3-c3nc(C(=O)O)cs3)cnc2cn1` [compound 81], the IC50 was over 1000 nM under setting [2] and 4220 nM under setting [3]. In the same order, the values of `CC(COc1ccc(Cl)cc1-c1cccc(C(=O)O)c1)n1cnc2cnc(C#N)cc2c1=O` (stereo not drawn) [compound 129] are over 1000 nM and 3100 nM. Consider `Cc1nc2cnc(CCN(C)CC(F)F)c(C#N)c2c(=O)n1CC#Cc1ccc(Cl)cc1-c1ccnc2c(C(=O)O)csc12` [compound 1492], for which, under setting [1], the IC50 was 20.1 nM. For the compound `Cc1cc(-c2cc(Cl)ccc2OCCc2c(C)n(C)c3cc(C(F)(F)F)cc(C#N)c3c2=O)c2scc(C(=O)O)c2n1` [compound 409], the IC50 was under 50 nM under setting [2] and 13.3 nM under setting [3]. In the case of `Cc1nc2cc(C(F)(F)F)c(N3CCN(C)CC3)c(C#N)c2c(=O)n1CCOc1ccc(Cl)cc1-c1ncnc2ccsc12` [compound 1250], the IC50 under setting [2] was in the range of 50 to 1000 nM and the IC50 under setting [1] was 75.8 nM. For the compound `CCN(c1ncc2nc(C)n(CC#Cc3ccc(Cl)cc3-c3ccnc4c(C(=O)NS(C)(=O)=O)csc34)c(=O)c2c1C#N)C1CCN(C2COC2)CC1` [compound 1578], under setting [1], the IC50 is 20.3 nM. With `Cc1cc2nccc(-c3cc(Cl)ccc3OCCn3c(C)nc4cc(C(F)(F)F)c(N5CCN(C)CC5)c(C#N)c4c3=O)c2s1` [compound 1248], the IC50 was 50 to 1000 nM under setting [2] and 60.7 nM under setting [1]. For the compound `Cc1cc(-c2cc(Cl)ccc2OCCn2c(C)nc3cc(Cl)c(CCN(C)C)c(C#N)c3c2=O)c2scc(C(=O)O)c2n1` [compound 609], the IC50 is, setting by setting: under setting [2], under 50 nM; under setting [3], 33.1 nM. For the compound `Cc1nc2cnc(N3CC4(C3)CN(C3CC3)C4)c(C#N)c2c(=O)n1CC#Cc1ccc(Cl)cc1-c1ccnc2c(C(=O)O)csc12` [compound 822], the IC50 reads like this: under setting [2], under 50 nM; under setting [3], 10.7 nM.

For `Cc1cc(-c2cc(Cl)ccc2OCCn2c(C)nc3cc(Cl)c(NC4CC4)c(C#N)c3c2=O)c2scc(C(=O)O)c2n1` [compound 958], the IC50 was under 50 nM under setting [2] and 13.5 nM under setting [3]. Regarding `Cc1nc2cc3c(c(C#N)c2c(=O)n1CCOc1ccc(Cl)cc1-c1ccnc2c(C(=O)O)csc12)S(=O)(=O)N(C)CC3` [compound 1954], the IC50 under setting [1] was 17 nM. As for `Cc1nc2c(F)cc(C(F)F)c(C#N)c2c(=O)n1CCOc1ccc(Cl)cc1-c1ccnc2c(-c3nnn[nH]3)csc12` [compound 302], the IC50 by setting is: under setting [2], 50 to 1000 nM; under setting [3], 77.6 nM. For `Cc1cc(-c2cc(Cl)ccc2OCCn2c(C)nc3cc(C(F)(F)F)cnc3c2=O)c2scc(C(=O)O)c2n1` [compound 337], the IC50 was under 50 nM under setting [2] and 25.7 nM under setting [3]. Consider `Cc1nc2cnc(N3CCN(C4(C(F)F)CC4)CC3)c(C#N)c2c(=O)n1CCOc1ccc(Cl)cc1-c1ccnc2c(C(=O)O)csc12` [compound 1310], for which the IC50 under setting [1] was 21.3 nM. With `Cc1ncc(F)cc1-c1c(C(F)(F)F)cc2nc(C)n(CCOc3ccc(Cl)cc3-c3ccnc4ccsc34)c(=O)c2c1C#N` [compound 706], the IC50 under setting [2] is 50 to 1000 nM. Consider `N#Cc1c(C(F)F)ccc2ncn(CCOc3ccc(Cl)cc3-c3cccc(C(=O)O)c3)c(=O)c12` [compound 28], for which the IC50 under setting [2] lay in the range of 50 to 1000 nM and the IC50 under setting [3] was 61.6 nM. Regarding `Cc1cc(-c2cc(Cl)ccc2OCCn2c(C)nc3cc(C(F)(F)F)c(-c4cnccc4C)c(C#N)c3c2=O)c2scc(C(=O)O)c2n1` [compound 736], the IC50 was under 50 nM under setting [2] and 17 nM under setting [3]. On to `Cc1nc2cc(OC(F)(F)F)cc(C#N)c2c(=O)n1CCOc1ccc(Cl)cc1-c1ccnc2c(C(=O)O)csc12` [compound 456], for which the IC50 is, setting by setting: under setting [2], under 50 nM; under setting [3], 10.9 nM. In the same order, the values of `Cc1nc2cnc(N3CC4(CN(CC(F)(F)F)C4)C3)c(C#N)c2c(=O)n1CCOc1ccc(Cl)cc1-c1ccnc2c(C(=O)O)csc12` [compound 840] are under 50 nM and 10.4 nM. Regarding `C#Cc1c(-c2cc(Cl)ccc2OCCn2c(C)nc3ccc(C(F)F)c(C#N)c3c2=O)ccnc1C(=O)O` [compound 57], the IC50 is under 50 nM under setting [2] and 12.8 nM under setting [3]. Consider `COc1c(CCOc2ccc(Cl)cc2-c2ccnc3c(C(=O)O)csc23)c(C)cc2cc(C(F)(F)F)cc(C#N)c12` [compound 1977], for which the IC50 under setting [1] was over 1000 nM. In the case of `Cc1nc2cnc(OC3CCN(CCF)CC3)c(C#N)c2c(=O)n1CCOc1ccc(Cl)cc1-c1ccnc2c(C(=O)O)csc12` [compound 1479], the IC50 under setting [1] is 16.7 nM. Regarding `Cc1nc2cc(C(F)(F)F)c(N3CCN(C)CC3)nc2c(=O)n1CCOc1ccc(Cl)cc1-c1ccnc2c(C(=O)NS(C)(=O)=O)csc12` [compound 1155], the IC50 is under 50 nM under setting [2] and 18.1 nM under setting [3].

As for `CCN(c1ncc2nc(C)n(CC#Cc3ccc(Cl)cc3-c3ccnc4c(C(=O)O)csc34)c(=O)c2c1C#N)C1CCN(CC(F)(F)C(F)F)CC1` [compound 1191], the IC50 under setting [2] was under 50 nM and the IC50 under setting [1] is 12.8 nM. For the compound `Cc1cc(-c2cc(Cl)ccc2OCCn2c(C)nc3cc(C(F)(F)F)c(N4CC(O)C4)nc3c2=O)c2scc(C(=O)O)c2n1` [compound 797], the IC50 under setting [2] is under 50 nM and the IC50 under setting [3] is 6.79 nM. On to `O=C(O)c1cccc(-c2cc(Cl)ccc2OCCn2cnc3c(C(F)(F)F)nccc3c2=O)c1` [compound 1993], for which the IC50 under setting [1] was 412 nM. On to `Cc1cc(-c2cc(Cl)ccc2OCCn2c(C)nc3cnc(-c4ccccc4C(F)(F)F)c(C#N)c3c2=O)c2scc(C(=O)O)c2n1` [compound 950], for which the IC50 reads like this: under setting [2], under 50 nM; under setting [3], 17.2 nM. `O=C(O)c1cccc(-c2cc(Cl)ccc2OCCn2cnc3cnccc3c2=O)c1` [compound 1992]: under setting [1], the IC50 was 490 nM. The same measure, in the same setting: with `Cc1nc2cc(C(F)(F)F)c(N3CCC4(CC3)CN(CC(F)F)C4)c(C#N)c2c(=O)n1CCOc1ccc(Cl)cc1-c1ccnc2c(C(=O)NS(C)(=O)=O)csc12` [compound 1913] the figure was 22.9 nM.

For `Cc1cc(-c2cc(Cl)ccc2OCCn2c(C)nc3cc(C(F)F)c(O)c(C#N)c3c2=O)c2scc(C(=O)O)c2n1` [439b], the IC50 under setting [3] is 32 nM. As to `Cc1cc(-c2cc(Cl)ccc2OCCn2c(C)nc3cnc(NN(C)C)c(C#N)c3c2=O)c2scc(C(=O)O)c2n1` [compound 979], the IC50 runs as follows: under setting [2], under 50 nM; under setting [3], 9.48 nM. As for `Cc1nc2cc(C(F)(F)F)cc(C#N)c2c(=O)n1CCOc1ccc(Cl)cc1-c1ccnc2c(C(=O)O)c(C(C)C)sc12` [compound 667], the IC50 is, setting by setting: under setting [2], under 50 nM; under setting [3], 46.7 nM.

As for `COC(C)c1ncc2nc(C)n(CCOc3ccc(Cl)cc3-c3cc(C)nc4c(C(=O)O)csc34)c(=O)c2c1C#N` (stereo not drawn) [compound 988], the IC50 reads like this: under setting [2], under 50 nM; under setting [3], 21.9 nM. Regarding `Cc1nc2cc(C(F)(F)F)cc(C#N)c2c(=O)n1CCOc1cnc(Cl)nc1-c1ccnc2c(C(=O)O)csc12` [compound 454], the IC50 by setting is: under setting [2], 50 to 1000 nM; under setting [3], 51.1 nM.

Turning to `Cc1cc(-c2cc(Cl)ccc2OCCn2c(C)nc3cc(C(F)(F)F)c(OCc4ccccn4)c(C#N)c3c2=O)c2scc(C(=O)O)c2n1` [compound 1033], the IC50 under setting [2] is under 50 nM and the IC50 under setting [3] is 20 nM. In the case of `Cc1cc(-c2cc(Cl)ccc2C#CCn2c(C)nc3cc(C(F)(F)F)c(CN4CCN(C)CC4)c(C#N)c3c2=O)c2scc(C(=O)O)c2n1` [compound 616], the IC50 was under 50 nM under setting [2] and 2.45 nM under setting [3]. `Cc1nc2cc(C(F)(F)F)c(CCN(C)C)c(C#N)c2c(=O)n1CC#Cc1ccc(Cl)cc1-c1ccnc2c(C(=O)O)csc12` [compound 1298]: the IC50 under setting [1] was 38.3 nM.

For the compound `Cc1nc2cnc(N3CCC34CN(CC(F)F)C4)c(C#N)c2c(=O)n1CC#Cc1ccc(Cl)cc1-c1ccnc2c(C(=O)O)csc12` [compound 1499], the IC50 under setting [1] is 27.5 nM.

Consider `CCc1cc(-c2cc(Cl)ccc2OCCn2c(C)nc3c(Cl)nc(C4CC4)c(C#N)c3c2=O)c2scc(C(=O)O)c2n1` [compound 1198], for which the IC50 is under 50 nM under setting [2] and 13 nM under setting [1]. As for `Cc1nc2cc(C(F)(F)F)c(CC3CN(CC(F)(F)F)C3)c(C#N)c2c(=O)n1CCOc1ccc(Cl)cc1-c1ccnc2c(C(=O)O)csc12` [compound 494], the IC50 is, setting by setting: under setting [2], 50 to 1000 nM; under setting [3], 85.6 nM. Regarding `N#Cc1cccc2nc(C(F)F)n(CCOc3ccc(Cl)cc3-c3ccnc4c(C(=O)O)csc34)c(=O)c12` [compound 143], the IC50 is under 50 nM under setting [2] and 16.7 nM under setting [3]. For `Cc1nc2cnc(N3CCN(C(C)(C)CF)CC3)c(C#N)c2c(=O)n1CCOc1ccc(Cl)cc1-c1ccnc2c(C(=O)NS(C)(=O)=O)csc12` [compound 1483], the IC50 under setting [1] was 13.7 nM. With `Cc1nc2cnc(N(C)C3CC4(C3)CN(CC(F)(F)F)C4)c(C#N)c2c(=O)n1CC#Cc1ccc(Cl)cc1-c1ccnc2c(C(=O)O)csc12` [compound 827], the IC50 under setting [2] was under 50 nM and the IC50 under setting [3] was 5.72 nM. As to `Cc1nc2cnc(N3CCN(CC(F)F)C4CC43)c(C#N)c2c(=O)n1CCOc1ccc(Cl)cc1-c1ccnc2c(C(=O)O)csc12` (stereo not drawn) [compound 824], the IC50 runs as follows: under setting [2], under 50 nM; under setting [3], 13.6 nM.

These data come from patent publication US11286268B1, “EIF4E-inhibiting compounds and methods” (EFFECTOR THERAPEUTICS, INC., priority 2019, dated 2022).
